How the values were obtained:
Leptosphaeria nodorum = Leptosphaeria nodorum test (wheat) / preventive; format: in vivo, Leptosphaeria nodorum on wheat; conditions: evaluated 8 days after inoculation
Method: (§1) • Solvent: 49 parts by weight of N,N-dimethylacetamide • Emulsifier: 1 part by weight of alkylaryl polyglycol ether
(§2) To produce a suitable preparation of active compound, 1 part by weight of active compound or active compound combination is mixed with the stated amounts of solvent and emulsifier, and the concentrate is diluted with water to the desired concentration.
(§3) To test for preventive activity, young plants are sprayed with the preparation of active compound or active compound combination at the stated rate of application.
After the spray coating has been dried, the plants are sprayed with a spore suspension of Leptosphaeria nodorum. The plants remain for 48 hours in an incubation cabinet at approximately 20° C. and a relative atmospheric humidity of approximately 100%.
The plants are placed in the greenhouse at a temperature of approximately 22° C. and a relative atmospheric humidity of approximately 80%.
The test is evaluated 8 days after the inoculation. 0% means an efficacy which corresponds to that of the untreated control, while an efficacy of 100% means that no disease is observed.

[1] = system: Blumeria graminis f.sp. hordei; experiment: Blumeria test (barley) / preventive; format: in vivo, Blumeria graminis f.sp. hordei on barley; conditions: evaluated 7 days after inoculation
Method: as §1, §2, §3
After the spray coating has been dried, the plants are dusted with spores of Blumeria graminis f.sp. hordei.
The plants are placed in the greenhouse at a temperature of approximately 18° C. and a relative atmospheric humidity of approximately 80% to promote the development of mildew pustules.
The test is evaluated 7 days after the inoculation. 0% means an efficacy which corresponds to that of the untreated control, while an efficacy of 100% means that no disease is observed.

Compound: CCOC(=O)C1=NN(c2ccc(Cl)cc2Cl)C(C)(C(=O)OCC)C1 [(D-23), mefenpyr-diethyl]
- Efficacy in % found (Leptosphaeria nodorum; 25 ppm a.i.): 17%

Compound: CP(=O)(O)CCC(N)C(=O)O (stereo not shown) [(B-13.3), glufosinate-ammonium]
- Efficacy in % found ([1]; 5 ppm a.i.): 0%

Compound: CCOC(=O)C1=NOC(c2ccccc2)(c2ccccc2)C1 [(D-19), isoxadifen-ethylen]
- Efficacy in % found (Leptosphaeria nodorum; 25 ppm a.i.): 17%

Compound: O=C(O)CNCP(=O)(O)O [(B-14.1), glyphosate]
- Efficacy in % found ([1]; 5 ppm a.i.): 11%

Compound: COc1ccccc1C(=O)NS(=O)(=O)c1ccc(C(=O)NC2CC2)cc1 [(D-62), N-{[4-(cyclopropylcarbamoyl)phenyl]-sulfonyl}-2-methoxybenzamide]
- Efficacy in % found (Leptosphaeria nodorum; 25 ppm a.i.): 0%

Compound: CC(C)c1ccc(Cl)cc1CN(C(=O)c1c(C(F)F)nn(C)c1F)C1CC1 [compound A5, N-(5-chloro-2-isopropylbenzyl)-N-cyclopropyl-3-(difluoromethyl)-5-fluoro-1-methyl-1H-pyrazole-4-carboxamide]
- Efficacy in % found ([1]; 62.5 ppm a.i.): 56%
- Efficacy in % found (Leptosphaeria nodorum; 31 ppm a.i.): 50%
